Literature values as cited in patent publication US11534424B2, “Compounds and methods for treatment of primary biliary cholangitis” (Arena Pharmaceuticals, Inc., priority 2017, dated 2022).

How the values were obtained:
[1] = test system: collagen induced arthritis (CIA); settings: CIA rats
[2] = test system: experimental autoimmune encephalomyelitis (EAE); settings: murine EAE, relative to vehicle
[3] = chronic administration

Row | SMILES | liver enzyme elevation [3] | other results
1 | O=C(O)C[C@H]1CCc2c1[nH]c1ccc(OCc3ccc(C4CCCC4)c(C(F)(F)F)c3)cc21 [Compound 1, (R)-2-(7-(4-cyclopentyl-3-(trifluoromethyl)benzyloxy)-1,2,3,4-tetrahydrocyclopenta[b]indol-3-yl)acetic acid] | – | histological parameters in the knees and ankles [1]: Improvement in histological parameters; disease course, therapeutic administration ([2]; administered day 18 to day 37, similar to fingolimod): reverse the disease relative to vehicle; onset and severity of disease, prophylactic administration ([2]; up to day 25): prevented the onset and severity of disease relative to vehicle up to day 25
2 | CC(C)Oc1ncc(-c2nc(-c3cccc4c3ccn4CCCC(=O)O)no2)cc1Cl [GSK2018682] | liver enzyme elevation has been seen | –
3 | CC(C)Oc1ccc(-c2nc(-c3cccc4c3CC[C@@H]4NCCO)no2)cc1C#N [ozanimod] | liver enzyme elevation has been seen | –
4 | CCc1cc(/C(C)=N/OCc2ccc(C3CCCCC3)c(C(F)(F)F)c2)ccc1CN1CC(C(=O)O)C1 [siponimod] | liver enzyme elevation has been seen | –

Continued, in another order:

Row | liver enzyme elevation [3] | SMILES | other results
5 | liver enzyme elevation has been seen | CCCCCCCCc1ccc(CCC(N)(CO)CO)cc1 [fingolimod] | –
6 | liver enzyme elevation has been seen | CCC/N=C1\S/C(=C\c2ccc(OC[C@H](O)CO)c(Cl)c2)C(=O)N1c1ccccc1C [ponesimod] | –
